Laboratory results published in article PMC9917184, “Synthesis and Biological Evaluation of Potential Oncoimmunomodulator Agents” (International Journal of Molecular Sciences, 2023).

Experiments:
membrane VEGFR-2 = experiment: Membrane VEGFR-2 relative quantification by flow cytometry in cancer cells co-cultured with Jurkat T cells; format: cell-based, human; details: 100 μM, 24 h; for %VEGFR2 (membrane): relative to non-treated co-cultures
Summary of the method: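 Interferon γ-stimulated human cancer cells co-cultured with Jurkat T cells and treated 24 h with compounds at 100 μM. Cells then fixed in 4% paraformaldehyde and co-stained with Alexa Fluor 647 anti-PD-L1 and FITC anti-VEGFR-2. Membrane levels quantified together by flow cytometry.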

PD-L1 [1] = molecular target: T1, PD-L1 (Homo sapiens, UniProt Q9NZQ7); experiment: Total PD-L1 relative quantification by flow cytometry in cancer cell lines; format: cell-based; set-up: Alexa Fluor® 647 Rabbit monoclonal Anti-PD-L1 (ab215251); endogenous in cells; host or cells: HT-29; details: 24 h, total PD-L1 relative to negative control (DMSO)
T1 sequence (Q9NZQ7 19-290): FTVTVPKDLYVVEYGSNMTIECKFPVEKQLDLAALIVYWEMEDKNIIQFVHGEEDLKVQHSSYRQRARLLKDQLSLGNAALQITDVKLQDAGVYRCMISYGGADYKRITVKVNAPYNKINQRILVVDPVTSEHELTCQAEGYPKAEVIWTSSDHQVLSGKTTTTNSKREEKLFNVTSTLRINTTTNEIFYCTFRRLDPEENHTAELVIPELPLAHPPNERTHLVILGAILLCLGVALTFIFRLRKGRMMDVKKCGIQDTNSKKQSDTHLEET

PD-L1 [2] = molecular target: T1, PD-L1; experiment: Immunofluorescence microscopy of PD-L1 in MCF-7; format: cell-based; set-up: Alexa Fluor® 647 Rabbit monoclonal Anti-PD-L1 (ab215251); endogenous in cells; host or cells: MCF-7; details: MCF-7, 24 h of treatment
Description: We also observed the effect of triazole derivatives 3, 5 and 7 on both targets in MCF-7 by immunofluorescence microscopy (see Figure 2). We stained both targets with anti-PD-L1 conjugated to AlexaFluor®647 (red in Figure 2), as well as anti-c-Myc conjugated to fluorescein (green in Figure 2), to determine the amount of both targets. The nucleus was stained with Hoechst (blue in Figure 2).
We observed that in the DMSO control, c-Myc was located in the nucleus of the cell and the nucleus membrane nearby, and PD-L1 was preferentially positioned in the membrane or cytosol, favoring the contact between surrounding cells.
For immunofluorescence microscopy of the microtubule network, […] cells were plated on cover glass and incubated with the selected compounds. Cells were then fixed in 4% formaldehyde (in PBS pH 7.4) for 20 min at room temperature and permeabilized with PBS-Triton X-100 0.5% for 1 min at room temperature. Direct immunostaining was carried out for 1 h at room temperature with FITC Mouse monoclonal Anti-c-Myc (ab223913) and Alexa Fluor® 647 Rabbit monoclonal Anti-PD-L1 (ab215251). Then, cells were washed in PBS, and cover glasses were mounted with a drop of ProLong® antifade solution (Invitrogen). The cytoskeleton was imaged by a confocal laser scanning microscope (CLSM) Leica SP5 with a Leica inverted microscope, equipped with 20x objective. Each image was recorded with the CLSM’s spectral mode selecting specific domains of the emission spectrum. The FITC fluorophore was excited at 488 nm with an argon laser, and its fluorescence emission was collected between 496 nm and 535 nm.

MCF-7 = MCF-7 cell viability in co-culture with Jurkat T cells (flow cytometry count); format: cell-based, human; details: 24 h; for viability at 100 µM: Homo sapiens, MCF7, MCF-7/Jurkat T co-culture, IFN-γ stimulated, read-out: percentage of living MCF-7 cells relative to non-treated co-cultures; for inhibition rate of MCF-7 cell viability: co-cultured with Jurkat T cells, 100 μM
Summary of the method: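 HT-29, MCF-7 or A-549 cells in IFN-γ (10 ng/mL) medium were co-cultured with 5 × 10^5 Jurkat T cells per well and 100 µM compound (DMSO control) for 24 h. Jurkat cells from the supernatant and trypsinized cancer cells were PFA-fixed and counted by flow cytometry. Living cells were expressed as % of untreated co-culture.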

c-Myc = experiment: Total c-Myc relative quantification by flow cytometry in cancer cell lines; format: cell-based, human; details: 24 h
[3] = A549 co-cultured with Jurkat T cells
[4] = HT29 co-cultured with Jurkat T cells
[5] = MCF7 co-cultured with Jurkat T cells
[6] = A-549, 100 µM, relative to negative control (DMSO)
[7] = HT-29, 100 µM, detected target relative to negative control (DMSO)
[8] = MCF-7, 100 µM, relative to negative control (DMSO)

| SMILES | %VEGFR2 (membrane) (membrane VEGFR-2; [3]) | %VEGFR2 (membrane) (membrane VEGFR-2; [4]) | %VEGFR2 (membrane) (membrane VEGFR-2; [5]) | remaining activity at 100 µM (PD-L1 [1]; A549, A-549, 100 µM) | remaining activity at 100 µM (PD-L1 [1]; HT-29, 100 µM) | remaining activity at 100 µM (PD-L1 [1]; MCF7, MCF-7, 100 µM) | PD-L1 localisation (confocal images) (PD-L1 [2]) | viability at 100 µM (MCF-7) | inhibition rate of MCF-7 cell viability (MCF-7) | % c-Myc (c-Myc; [6]) | % c-Myc (c-Myc; [7]) | % c-Myc (c-Myc; [8]) | membrane VEGFR-2 inhibition rate (membrane VEGFR-2; A-549 co-cultured with Jurkat T cells) | membrane VEGFR-2 inhibition rate (membrane VEGFR-2; HT-29 co-cultured with Jurkat T cells) | membrane VEGFR-2 inhibition rate (membrane VEGFR-2; MCF-7 co-cultured with Jurkat T cells) |
| --- | --- | --- | --- | --- | --- | --- | --- | --- | --- | --- | --- | --- | --- | --- | --- |
| COc1ccc(C(OCCc2ccc(CCn3cc(-c4ccccc4Br)nn3)cc2)(c2ccccc2)c2ccc(OC)cc2)cc1 [Compound 7, 1-(4-(2-(bis(4-methoxyphenyl)(phenyl)methoxy)ethyl)phenethyl)-4-(2-bromophenyl)-1H-1,2,3-triazole] | 89 ± 5% | 93 ± 3% | 100 ± 0% | 86 ± 20% | 45 ± 7% | 80 ± 4% | preferentially in cytosol | 41 ± 4% | around 60% | 67 ± 6% | 43 ± 7% | 51 ± 3% |  |  |  |
| COc1ccc(C(OCCc2ccc(CCn3cc(-c4cccc(Br)c4)nn3)cc2)(c2ccccc2)c2ccc(OC)cc2)cc1 [Compound 5, 1-(4-(2-(bis(4-methoxyphenyl)(phenyl)methoxy)ethyl)phenethyl)-4-(3-bromophenyl)-1H-1,2,3-triazole] | 92 ± 2% | 85 ± 4% | 85 ± 4% | 70 ± 16% | 38 ± 1% | 87 ± 1% | accumulated in the interface of cells and in the nucleus | 37 ± 5% |  | 72 ± 9% | 66 ± 10% | 61 ± 11% |  |  |  |
| Cc1c(COc2ccc(CN3CCCCC3C(=O)O)cc2Br)cccc1-c1ccccc1 (stereo not shown) [BMS-8, reference compound] | 104 ± 9% | 63 ± 4% | 100 ± 2% | 70 ± 8% | 68 ± 10% | 77 ± 3% | located preferentially in the nucleus | 57 ± 7% |  | 142 ± 8% | 119 ± 9% | 130 ± 12% |  |  |  |
| COc1ccc(C(OCCc2ccc(CCn3cc(-c4ccc(Br)cc4)nn3)cc2)(c2ccccc2)c2ccc(OC)cc2)cc1 [Compound 3, 1-(4-(2-(bis(4-methoxyphenyl)(phenyl)methoxy)ethyl)phenethyl)-4-(4-bromophenyl)-1H-1,2,3-triazole] | 73 ± 4% | 81 ± 7% | 81 ± 4% | 58 ± 10% | 47 ± 1% | 108 ± 13% | accumulates in the cytosol | 45 ± 4% | around 60% | 66 ± 5% | 67 ± 8% | 65 ± 4% | around 20% | around 20% | around 20% |
